Assay results: US8192962B2, “Processes for detecting toxic substances” (Daikin Industries, Ltd., priority 2001, dated 2012)

Tested on: Transport facilitation protein genes
Test: DNA chip mRNA expression in yeast, transport facilitation protein genes (Table 5)
Type: cell-based, Saccharomyces cerevisiae S288C
Outline: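 First, S288C yeast grown in YPD at 25° C. are dosed in log phase with one toxicant (growth-inhibiting, not lethal) for 2 h. Next, total RNA is extracted and poly(A) mRNA isolated and reverse-transcribed with Cy3/Cy5-dUTP. Finally, whole-genome chip fluorescence is read relative to unexposed cells.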

Na2As [(1)]
The level of expressed mRNA in the presence of chemical substance/The level of expressed mRNA in the absence of chemical substance (yeast gene YBL030C): 1.0
The level of expressed mRNA in the presence of chemical substance/The level of expressed mRNA in the absence of chemical substance (yeast gene YBL099W): 0.8
The level of expressed mRNA in the presence of chemical substance/The level of expressed mRNA in the absence of chemical substance (yeast gene YBR052C): 1.6
The level of expressed mRNA in the presence of chemical substance/The level of expressed mRNA in the absence of chemical substance (yeast gene YBR068C): 1.1
The level of expressed mRNA in the presence of chemical substance/The level of expressed mRNA in the absence of chemical substance (yeast gene YBR127C): 0.8
The level of expressed mRNA in the presence of chemical substance/The level of expressed mRNA in the absence of chemical substance (yeast gene YBR132C): 0.9
The level of expressed mRNA in the presence of chemical substance/The level of expressed mRNA in the absence of chemical substance (yeast gene YBR207W): 0.8
The level of expressed mRNA in the presence of chemical substance/The level of expressed mRNA in the absence of chemical substance (yeast gene YBR293W): 1.9
The level of expressed mRNA in the presence of chemical substance/The level of expressed mRNA in the absence of chemical substance (yeast gene YBR294W): 6.3
The level of expressed mRNA in the presence of chemical substance/The level of expressed mRNA in the absence of chemical substance (yeast gene YBR295W): 1.4
The level of expressed mRNA in the presence of chemical substance/The level of expressed mRNA in the absence of chemical substance (yeast gene YBR298C): 1.1
The level of expressed mRNA in the presence of chemical substance/The level of expressed mRNA in the absence of chemical substance (yeast gene YCL025C): 1.1
The level of expressed mRNA in the presence of chemical substance/The level of expressed mRNA in the absence of chemical substance (yeast gene YCL038C): 1.6
The level of expressed mRNA in the presence of chemical substance/The level of expressed mRNA in the absence of chemical substance (yeast gene YCR024C-A): 0.8
The level of expressed mRNA in the presence of chemical substance/The level of expressed mRNA in the absence of chemical substance (yeast gene YCR037C): 0.7
The level of expressed mRNA in the presence of chemical substance/The level of expressed mRNA in the absence of chemical substance (yeast gene YCR098C): 1.6
The level of expressed mRNA in the presence of chemical substance/The level of expressed mRNA in the absence of chemical substance (yeast gene YDL128W): 0.8
The level of expressed mRNA in the presence of chemical substance/The level of expressed mRNA in the absence of chemical substance (yeast gene YDL198C): 1.4
The level of expressed mRNA in the presence of chemical substance/The level of expressed mRNA in the absence of chemical substance (yeast gene YDL210W): 1.2
The level of expressed mRNA in the presence of chemical substance/The level of expressed mRNA in the absence of chemical substance (yeast gene YDL245C): 1.0
The level of expressed mRNA in the presence of chemical substance/The level of expressed mRNA in the absence of chemical substance (yeast gene YDR038C): 0.6
The level of expressed mRNA in the presence of chemical substance/The level of expressed mRNA in the absence of chemical substance (yeast gene YDR039C): 0.6
The level of expressed mRNA in the presence of chemical substance/The level of expressed mRNA in the absence of chemical substance (yeast gene YDR086C): 1.3
The level of expressed mRNA in the presence of chemical substance/The level of expressed mRNA in the absence of chemical substance (yeast gene YDR270W): 0.7
The level of expressed mRNA in the presence of chemical substance/The level of expressed mRNA in the absence of chemical substance (yeast gene YDR298C): 1.3
The level of expressed mRNA in the presence of chemical substance/The level of expressed mRNA in the absence of chemical substance (yeast gene YDR342C): 2.8
The level of expressed mRNA in the presence of chemical substance/The level of expressed mRNA in the absence of chemical substance (yeast gene YDR343C): 1.2
The level of expressed mRNA in the presence of chemical substance/The level of expressed mRNA in the absence of chemical substance (yeast gene YDR345C): 0.8
The level of expressed mRNA in the presence of chemical substance/The level of expressed mRNA in the absence of chemical substance (yeast gene YDR387C): 0.8
The level of expressed mRNA in the presence of chemical substance/The level of expressed mRNA in the absence of chemical substance (yeast gene YDR497C): 0.7
The level of expressed mRNA in the presence of chemical substance/The level of expressed mRNA in the absence of chemical substance (yeast gene YEL027W): 1.2
The level of expressed mRNA in the presence of chemical substance/The level of expressed mRNA in the absence of chemical substance (yeast gene YEL063C): 0.7
The level of expressed mRNA in the presence of chemical substance/The level of expressed mRNA in the absence of chemical substance (yeast gene YEL065W): 0.3
The level of expressed mRNA in the presence of chemical substance/The level of expressed mRNA in the absence of chemical substance (yeast gene YER053C): 1.6
The level of expressed mRNA in the presence of chemical substance/The level of expressed mRNA in the absence of chemical substance (yeast gene YFL011W): 1.2
The level of expressed mRNA in the presence of chemical substance/The level of expressed mRNA in the absence of chemical substance (yeast gene YFL041W): 0.7
The level of expressed mRNA in the presence of chemical substance/The level of expressed mRNA in the absence of chemical substance (yeast gene YFL050C): 0.7
The level of expressed mRNA in the presence of chemical substance/The level of expressed mRNA in the absence of chemical substance (yeast gene YFL054C): 1.6
The level of expressed mRNA in the presence of chemical substance/The level of expressed mRNA in the absence of chemical substance (yeast gene YGL006W): 2.5
The level of expressed mRNA in the presence of chemical substance/The level of expressed mRNA in the absence of chemical substance (yeast gene YGL008C): 0.6
The level of expressed mRNA in the presence of chemical substance/The level of expressed mRNA in the absence of chemical substance (yeast gene YGL104C): 0.8
The level of expressed mRNA in the presence of chemical substance/The level of expressed mRNA in the absence of chemical substance (yeast gene YGL167C): 0.9
The level of expressed mRNA in the presence of chemical substance/The level of expressed mRNA in the absence of chemical substance (yeast gene YGL255W): 0.7
The level of expressed mRNA in the presence of chemical substance/The level of expressed mRNA in the absence of chemical substance (yeast gene YGR055W): 2.5
The level of expressed mRNA in the presence of chemical substance/The level of expressed mRNA in the absence of chemical substance (yeast gene YGR065C): 0.8
The level of expressed mRNA in the presence of chemical substance/The level of expressed mRNA in the absence of chemical substance (yeast gene YGR082W): 1.0
The level of expressed mRNA in the presence of chemical substance/The level of expressed mRNA in the absence of chemical substance (yeast gene YGR096W): 1.5
The level of expressed mRNA in the presence of chemical substance/The level of expressed mRNA in the absence of chemical substance (yeast gene YGR138C): 1.1
The level of expressed mRNA in the presence of chemical substance/The level of expressed mRNA in the absence of chemical substance (yeast gene YGR191W): 0.8
The level of expressed mRNA in the presence of chemical substance/The level of expressed mRNA in the absence of chemical substance (yeast gene YGR197C): 1.1
